Results as given in patent US10689344B2, “Biphenylamide derivative Hsp90 inhibitors” (University of Kansas, priority 2013, dated 2020).

Assays:
[1] = system: MCF-7 (estrogen receptor positive breast cancer cells); assay: Anti-proliferation assay (MTS/PMS, 72 h), MCF-7; format: cell-based; settings: Homo sapiens
Procedure: (§1) Cells were maintained in a 1:1 mixture of Advanced DMEM/F12 (Gibco) supplemented with non-essential amino acids, L-glutamine (2 mM), streptomycin (500 μg/mL), penicillin (100 units/mL), and 10% FBS. Cells were grown to confluence in a humidified atmosphere (37° C., 5% CO2), seeded (2000/well, 100 μL) in 96-well plates, and allowed to attach overnight. Compound at varying concentrations in DMSO (1% DMSO final concentration) was added, and cells were returned to the incubator for 72 h. At 72 h, the number of viable cells was determined using an MTS/PMS cell proliferation kit (Promega) per the manufacturer's instructions. Cells incubated in 1% DMSO were used at 100% proliferation, and values were adjusted accordingly. IC50 values were calculated from separate experiments performed in triplicate using GraphPad Prism.
(§2) Anti-proliferative studies with the compounds described herein were performed against the SKBr3 (estrogen receptor negative, HER2 over-expressing breast cancer cells) and MCF-7 (estrogen receptor positive breast cancer cells) breast cancer cell lines. […] In some embodiments, in contrast to the novobiocin derivatives, which usually manifest better anti-proliferative activities against the SKBr3 cell line, the biphenyl derivatives described herein were more efficacious against the MCF-7 cell line. In general, all substitutions on the phenyl ring were determined to be beneficial, consistent with the existence of a hydrophobic pocket in this region of the Hsp90 C-terminal binding site.

[2] = system: SKBr3 (estrogen receptor negative, HER2 over-expressing breast cancer cells); assay: Anti-proliferation assay (MTS/PMS, 72 h), SKBr3; format: cell-based; settings: Homo sapiens
Procedure: as §1, §2

[3] = MCF7, Table 8, para-para biphenyl core with substituted biphenylamide group
[4] = SK-BR-3, Table 8, para-para biphenyl core with substituted biphenylamide group
[5] = MCF7, Table 6, para-para biphenyl core with substituted benzylamide
[6] = SK-BR-3, Table 6, para-para biphenyl core with substituted benzylamide
[7] = MCF7, Table 1, ortho, meta and para biphenyl cores
[8] = SK-BR-3, Table 1, ortho, meta and para biphenyl cores
[9] = MCF7, Table 2, para-meta biphenyl core with substituted benzylamide
[10] = SK-BR-3, Table 2, para-meta biphenyl core with substituted benzylamide
[11] = MCF7, Table 3, substituted para-para biphenyl core
[12] = SK-BR-3, Table 3, substituted para-para biphenyl core

## Cc1ccc(C(=O)Nc2ccc(-c3ccc(OC4CCN(C)CC4)cc3)cc2)cc1-c1cccc(Cl)c1 [Compound 49k]
[1]; [3]
  IC50: 1600 ± 110 nM
[2]; [4]
  IC50: 3160 ± 370 nM

## COc1cccc(-c2cccc(C(=O)Nc3ccc(-c4ccc(OC5CCN(C)CC5)cc4)cc3)c2)c1 [Compound 49b, 3′-methoxy-N-(4′-((1-methylpiperidin-4-yl)oxy)-[1,1′-biphenyl]-4-yl)-[1,1′-biphenyl]-3-carboxamide]
[1]; [3]
  IC50: 1020 ± 80 nM
[2]; [4]
  IC50: 810 ± 140 nM

## CN1CCC(Oc2ccc(-c3ccc(NC(=O)c4ccccc4)cc3)cc2)CC1 [Compound 41a, N-(4′-((1-methylpiperidin-4-yl)oxy)-[1,1′-biphenyl]-4-yl)benzamide]
[1]; [5]
  IC50: 3950 ± 130 nM
[2]; [6]
  IC50: 4130 ± 220 nM

## CC(=O)Oc1ccc(C(=O)Nc2cccc(-c3ccc(OC4CCN(C)CC4)cc3)c2)cc1CC=C(C)C [Compound 61e, 2-(3-methylbut-2-en-1-yl)-4-((4′-((1-methylpiperidin-4-yl)oxy)-[1,1′-biphenyl]-3-yl)carbamoyl)phenyl acetate]
[1]; [7]
  IC50: 2710 ± 400 nM
[2]; [8]
  IC50: 3470 nM

## CN1CCC(Oc2ccc(-c3cccc(NC(=O)c4ccc(Cl)cc4)c3)cc2)CC1 [Compound 6h, 4-Chloro-N-(4′-((1-methylpiperidin-4-yl)oxy)-[1,1′-biphenyl]-3-yl)benzamide]
[1]; [7]
  IC50: 2230 ± 50 nM
[1]; [9]
  IC50: 2230 ± 50 nM
[2]; [8]
  IC50: 3630 ± 1030 nM
[2]; [10]
  IC50: 3630 ± 1030 nM

## CN1CCC(Oc2ccc(-c3cccc(NC(=O)c4cc(Cl)cc(Cl)c4)c3)cc2)CC1 [Compound 6o, 3,5-Dichloro-N-(4′-((1-methylpiperidin-4-yl)oxy)-[1,1′-biphenyl]-3-yl)benzamide]
[1]; [9]
  IC50: 3720 ± 150 nM
[2]; [10]
  IC50: 4230 ± 90 nM

## COc1ccc(C(=O)Nc2ccc(-c3ccc(OC4CCN(C)CC4)cc3)cc2)cc1-c1cccc(Cl)c1 [Compound 49f, 3′-chloro-6-methoxy-N-(4′-((1-methylpiperidin-4-yl)oxy)-[1,1′-biphenyl]-4-yl)-[1,1′-biphenyl]-3-carboxamide]
[1]; [3]
  IC50: 320 ± 90 nM
[2]; [4]
  IC50: 330 ± 30 nM

## CN1CCC(Oc2ccc(-c3cccc(NC(=O)c4ccc5ccccc5c4)c3)cc2)CC1 [Compound 6q]
[1]; [9]
  IC50: 1660 ± 270 nM
[2]; [10]
  IC50: 2090 ± 340 nM

## COc1cccc(-c2cc(C(=O)Nc3ccc(-c4ccc(OC5CCN(C)CC5)cc4)c(Cl)c3)ccc2OC)c1 [Compound 29k, N-(2-chloro-4′-((1-methylpiperidin-4-yl)oxy)-[1,1′-biphenyl]-4-yl)-3′,6-dimethoxy-[1,1′-biphenyl]-3-carboxamide]
[1]; [11]
  IC50: 3440 ± 210 nM
[2]; [12]
  IC50: 2210 ± 180 nM

## COc1cccc(-c2cc(C(=O)Nc3ccc(-c4ccc(OC5CCN(C)CC5)nc4)cc3)ccc2OC)c1 [Compound 19a, 3′,6-dimethoxy-N-(4-(6-((1-methylpiperidin-4-yl)oxy)pyridin-3-yl)phenyl)-[1,1′-biphenyl]-3-carboxamide]
[1]; MCF7, Table 4, para-para heteroatom substituted biphenyl core
  IC50: 1560 ± 190 nM
[2]; SK-BR-3, Table 4, para-para heteroatom substituted biphenyl core
  IC50: 1670 ± 90 nM

## CN1CCC(Oc2ccc(Nc3ccc(NC(=O)c4ccc5ccccc5c4)cc3)cc2)CC1
[1]; MCF7, Table 11, heteroatom linked biphenyl core
  IC50: 2150 ± 10 nM
[2]; SK-BR-3, Table 11, heteroatom linked biphenyl core
  IC50: 4600 ± 250 nM

## COc1cccc(-c2cc(C(=O)Nc3ccc(-c4ccc(OC5CCN(C)CC5)c(C)c4)cc3)ccc2OC)c1 [Compound 29a, 3′,6-dimethoxy-N-(3′-methyl-4′-((1-methylpiperidin-4-yl)oxy)-[1,1′-biphenyl]-4-yl)-[1,1′-biphenyl]-3-carboxamide]
[1]; [11]
  IC50: 1690 ± 80 nM
[2]; [12]
  IC50: 830 ± 30 nM

## CN1CCC(Oc2ccc(-c3ccc(NC(=O)C45CC6CC(CC(C6)C4)C5)cc3)cc2)CC1 [Compound 61c, N-(4′-((1-methylpiperidin-4-yl)oxy)-[1,1′-biphenyl]-4-yl)adamantane-1-carboxamide]
[1]; [7]
  IC50: 2770 ± 230 nM
[2]; [8]
  IC50: 2070 ± 350 nM

## CN1CCC(Oc2ccc(-c3ccc(NC(=O)c4cccc(Cl)c4)cc3)cc2)CC1 [Compound 41h, 3-chloro-N-(4′-((1-methylpiperidin-4-yl)oxy)-[1,1′-biphenyl]-4-yl)benzamide]
[1]; [5]
  IC50: 2830 ± 690 nM
[2]; [6]
  IC50: 1940 ± 370 nM

## COc1cccc(-c2cc(C(=O)Nc3ccc(-c4ccc(OCCC5CCCN5C)cc4)cc3)ccc2OC)c1 (stereo not shown) [Compound 56d, 3′,6-dimethoxy-N-(4′-(2-(1-methylpyrrolidin-2-yl)ethoxy)-[1,1′-biphenyl]-4-yl)-[1,1′-biphenyl]-3-carboxamide]
[2]; SK-BR-3, Table 7, para-para biphenyl core with modified ether groups
  IC50: 1750 ± 240 nM
